{"source": "paper PMC12113681", "about": "“Discovery, Biological Evaluation and Binding Mode Investigation of Novel Butyrylcholinesterase Inhibitors Through Hybrid Virtual Screening” (Molecules, 2025)", "key": {"[1]": {"test_system": "PC12 cells", "assay": "Neuroprotection in H2O2-induced injury model, MTT assay", "assay_type": "cell-based", "conditions": "for neuroprotective activity: 5 to 50 μM; for viability at 50 µM: Rattus norvegicus, PC-12, read-out: cell viability", "description": "To assess the neuroprotective potential of the compounds, an H2O2-induced injury model in PC12 cells was established. PC12 cells were seeded into 96-well plates and incubated for 24 h, as described previously. […]."}, "[2]": {"test_system": "PC12 cells", "assay": "in vitro", "conditions": "PC-12 cells", "description": "(§1) Well-differentiated rat adrenal pheochromocytoma cells (PC12) and the corresponding culture medium (WHAA24F163) were obtained from Procell Life Technology Co., Ltd. (Wuhan, China). The culture medium was supplemented with 10% fetal bovine serum (FBS, 164210-50) and 1% antibiotics (a penicillin–streptomycin mixture). PC12 cells were seeded into sterile 96-well plates at a density of 7000 cells per well (100 μL) and incubated for 24 h in a humidified incubator at 37 °C with 5% CO2. Subsequently, the cells were treated with varying concentrations of the test compounds (10, 20, and 50 μM in 100 μL) and cultured for an additional 24 h. Cell viability was assessed using the 3-(4,5-dimethylthiazol-2-yl)-2,5-diphenyltetrazolium bromide (MTT) assay (Xavier, Wuhan, China), following protocols described in a prior study."}, "[3]": {"target": "T1, BChE (horse-serum, E.C. 3.1.1.8) (Equus caballus, UniProt P81908)", "T1 construct": "Sigma, St. Louis, MO, USA, horse-serum, E.C; 3.1.1.8; purchased Sigma; host or cells: horse serum", "T1 sequence (P81908 whole entry)": "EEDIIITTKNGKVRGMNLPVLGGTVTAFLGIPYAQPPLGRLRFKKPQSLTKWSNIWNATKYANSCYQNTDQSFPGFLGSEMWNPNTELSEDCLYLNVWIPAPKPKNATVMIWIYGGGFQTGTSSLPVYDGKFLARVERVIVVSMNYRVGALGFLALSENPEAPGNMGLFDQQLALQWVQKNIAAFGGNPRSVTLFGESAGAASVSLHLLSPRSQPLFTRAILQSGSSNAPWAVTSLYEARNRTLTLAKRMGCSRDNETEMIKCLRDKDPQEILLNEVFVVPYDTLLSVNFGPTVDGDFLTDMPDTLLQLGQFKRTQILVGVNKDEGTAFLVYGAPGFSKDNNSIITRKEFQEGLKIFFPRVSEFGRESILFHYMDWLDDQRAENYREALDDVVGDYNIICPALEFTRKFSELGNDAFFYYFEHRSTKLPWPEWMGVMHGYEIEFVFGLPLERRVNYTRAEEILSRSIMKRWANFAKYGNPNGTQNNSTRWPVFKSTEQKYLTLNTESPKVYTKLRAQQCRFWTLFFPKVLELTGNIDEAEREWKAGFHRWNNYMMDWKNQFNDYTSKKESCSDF", "assay": "biochemical", "description": "The inhibitory activity of BChE was evaluated using 96-well plates on a microplate reader (Varioskan LUX, Thermo Fisher, Waltham, MA, USA) based on a modified Ellman method. Briefly, 25 μL of BChE solution (0.2 U·mL^−1, Sigma, St. Louis, MO, USA, horse-serum, E.C. 3.1.1.8) was combined with 65 μL of phosphate buffer (PBS, 0.1 M, pH 8.0), 125 μL of 5,5′-dithio-bis(2-nitrobenzoic acid) (DTNB, 3 mM), and 10 μL of a test compound at varying concentrations. Small molecules (50 mM, Topscience) were initially dissolved in dimethyl sulfoxide (DMSO) and subsequently diluted to desired concentrations using PBS. The reaction mixture was preincubated at 37 °C for 20 min. Following this, 25 μL of butyrylthiocholine iodide (BTC, 15 mM) was added, and the absorbance was measured at 412 nm in 30-s intervals for 3 min."}, "[4]": {"target": "T2, BChE (Equus caballus, UniProt P81908)", "T2 sequence (P81908 whole entry)": "as above", "assay": "Fluorescence quenching experiment (Stern-Volmer, Van't Hoff analysis)", "assay_type": "binding", "conditions": "for quenching rate constant (Kq): τ0 10^−8 s; for Kd: Ka (binding constant); for ∆H / ∆S: Van't Hoff, 298-310 K, regarded as a constant", "description": "Then, the Stern–Volmer Equation (1) was applied to analyze their quenching mechanisms.\nTheir binding constants (Ka) and binding sites (n) (Table 4) with BChE were calculated using the double logarithmic Equation (2) (Figure 5G,H).\nThermodynamic parameter analysis offers valuable insights into the predominant interaction forces governing the binding process between ligand and protein, which may encompass hydrogen bonding, electrostatic interactions, hydrophobic effects, van der Waals forces, and π-effects. By applying the Van’t Hoff Equation (3) and the Gibbs–Helmholtz Equation (4), the thermodynamic parameters—including change (ΔS), enthalpy change (ΔH), and Gibbs free energy change (ΔG)—for the interactions of piboserod and Rotigotine at various temperatures.\nFluorescence quenching experiment. The fluorescence intensity of the inhibitor–BChE complex was measured using a microplate reader with an all-black 96-well plate at three different temperatures (298, 304, and 310 K). The excitation wavelength was set to 280 nm, and the emission spectrum was scanned over the range of 320–460 nm with a slit width of 5 nm. The BChE concentration was maintained constant at 5 U·mL^−1, while the compound concentration was varied in a gradient (0 to 50 μM). After mixing the compound and BChE, the samples were incubated at the designated temperature for 30 min prior to measurement. A PBS solution was used as a blank to account for background fluorescence and ensure accurate correction of the fluorescence intensity measurements."}, "[5]": {"target": "T2, BChE", "assay": "BChE enzyme kinetic study (Lineweaver-Burk)", "assay_type": "biochemical", "parameters": "Sigma, St. Louis, MO, USA, horse-serum, E.C; 3.1.1.8; purchased Sigma; host or cells: horse serum", "conditions": "for inhibition type: Lineweaver-Burk plots; for reversibility of inhibition: plots of v vs [BChE] at different inhibitor concentrations", "description": "Kinetic studies were performed to clarify the inhibition mechanism of piboserod and Rotigotine. Figure 4A,B illustrates the relationship between BChE concentration ([BChE]) and catalytic rate (v) at different inhibitor concentrations ([I]). […] Lineweaver–Burk plots were used to characterize their inhibition types. […]. The inhibition constant (Ki) values were calculated based on Lineweaver–Burk secondary plots (Figure 4C,D). […]. […].\nKinetic studies were conducted to measure reaction rates using the same methodology as in the enzyme inhibition experiments. […]. The relationship between reaction rates and enzyme concentrations was used to assess whether the inhibition was reversible. Additionally, reaction rates (v, △OD417 ·min^−1) were measured at a constant BChE concentration (0.2 U·mL^−1) while varying substrate concentrations (0.05, 0.1, 0.2, 0.4, 0.8 mM). A double-reciprocal Lineweaver–Burk plot of reaction rate versus substrate concentration was generated to elucidate the inhibition type based on the intersection points of the curves. Common inhibition types were identified as follows: competitive (intersects on the Y-axis), non-competitive (intersects on the X-axis), uncompetitive (parallel lines), and mixed (intersects in the second or third quadrant). […]"}, "[6]": {"assay": "in vitro", "conditions": "rat", "description": "as §1"}, "[7]": {"conditions": "PC-12 cells, hydrogen peroxide injury"}}, "note": "Entries after “also recorded” stand apart in the source; their conditions may differ. Where two headings read alike, the source gives them in different places."}
{"molecule": "CN1C[C@H](CNC(=O)OCc2ccccc2)C[C@@H]2c3cccc4c3c(cn4C)C[C@H]21", "note": "[Metergoline]", "values": [{"measurement": "neuroprotective effect", "setting": "[1]; PC-12 cells, hydrogen peroxide injury, low concentrations (5–10 μM)", "value": "modest neuroprotective effects"}, {"measurement": "neurotoxicity", "setting": "[2]; lowest concentration (10 μM)", "value": "no neurotoxicity"}, {"measurement": "cytotoxicity", "setting": "[2]; maximum concentration", "value": "higher cytotoxicity than that of Tacrine"}, {"measurement": "IC50", "setting": "[3]", "value": "18.4 ± 3.29", "unit": "µM"}]}
{"molecule": "CCCN(CCc1cccs1)[C@H]1CCc2c(O)cccc2C1", "note": "[Rotigotine]", "values": [{"measurement": "neuroprotective activity", "setting": "[1]; [7]", "value": "significant neuroprotective activities"}, {"measurement": "viability at 50 µM", "setting": "[1]", "value": 70, "unit": "%"}, {"measurement": "Ksv", "setting": "[4]; 298 K", "value": 2640, "unit": "L/mol"}, {"measurement": "n (binding sites)", "setting": "[4]; 298 K", "value": 1.066}, {"measurement": "∆G", "setting": "[4]; 298 K", "value": -5.067, "unit": "kcal/mol"}, {"measurement": "quenching rate constant (Kq)", "setting": "[4]; 298 K", "value": "2.64e+11", "unit": "M⁻¹ s⁻¹"}, {"measurement": "Ksv", "setting": "[4]; 304 K", "value": 2250, "unit": "L/mol"}, {"measurement": "n (binding sites)", "setting": "[4]; 304 K", "value": 1.022}, {"measurement": "∆G", "setting": "[4]; 304 K", "value": -4.787, "unit": "kcal/mol"}, {"measurement": "Ksv", "setting": "[4]; 310 K", "value": 1540, "unit": "L/mol"}, {"measurement": "n (binding sites)", "setting": "[4]; 310 K", "value": 0.975}, {"measurement": "Kd", "setting": "[4]; 298 K", "value": 19.7, "unit": "µM"}, {"measurement": "Kd", "setting": "[4]; 304 K", "value": 34.5, "unit": "µM"}, {"measurement": "Kd", "setting": "[4]; 310 K", "value": 68.1, "unit": "µM"}, {"measurement": "∆H", "setting": "[4]", "value": -18.98, "unit": "kcal/mol"}, {"measurement": "∆S", "setting": "[4]", "value": "−195.34", "unit": "J·mol^−1·K^−1"}, {"measurement": "Ki", "setting": "[5]", "value": 6.76, "unit": "µM"}, {"measurement": "inhibition type", "setting": "[5]", "value": "non-competitive inhibitor; also recorded: non-competitive inhibition"}, {"measurement": "reversibility of inhibition", "setting": "[5]", "value": "reversibly inhibit BChE"}, {"measurement": "IC50", "setting": "[3]", "value": "12.8 ± 4.22", "unit": "µM"}]}
{"molecule": "COc1cc2c(NC3CCN(C)CC3)nc(N3CCCN(C)CC3)nc2cc1OCc1ccccc1", "note": "[TM2-115]", "values": [{"measurement": "IC50", "setting": "[3]; read-out: IC50", "value": "~50", "unit": "µM"}]}
{"molecule": "Nc1c2c(nc3ccccc13)CCCC2", "note": "[Tacrine]", "values": [{"measurement": "viability at 50 µM", "setting": "[6]", "value": 65, "unit": "%"}]}
{"molecule": "CCCCN1CCC(CNC(=O)c2c3n(c4ccccc24)CCCO3)CC1", "note": "[piboserod]", "values": [{"measurement": "neuroprotective activity", "setting": "[1]; [7]", "value": "significant neuroprotective activities"}, {"measurement": "viability at 50 µM", "setting": "[1]", "value": 66, "unit": "%"}, {"measurement": "Ksv", "setting": "[4]; 298 K", "value": 5250, "unit": "L/mol"}, {"measurement": "n (binding sites)", "setting": "[4]; 298 K", "value": 1.052}, {"measurement": "∆G", "setting": "[4]; 298 K", "value": -5.373, "unit": "kcal/mol"}, {"measurement": "quenching rate constant (Kq)", "setting": "[4]; 298 K", "value": "5.25e+11", "unit": "M⁻¹ s⁻¹"}, {"measurement": "Ksv", "setting": "[4]; 304 K", "value": 4720, "unit": "L/mol"}, {"measurement": "n (binding sites)", "setting": "[4]; 304 K", "value": 1.035}, {"measurement": "∆G", "setting": "[4]; 304 K", "value": -5.308, "unit": "kcal/mol"}, {"measurement": "Ksv", "setting": "[4]; 310 K", "value": 4250, "unit": "L/mol"}, {"measurement": "n (binding sites)", "setting": "[4]; 310 K", "value": 1.014}, {"measurement": "∆G", "setting": "[4]; 310 K", "value": -5.244, "unit": "kcal/mol"}, {"measurement": "Kd", "setting": "[4]; 298 K", "value": 11.6, "unit": "µM"}, {"measurement": "Kd", "setting": "[4]; 304 K", "value": 14.9, "unit": "µM"}, {"measurement": "Kd", "setting": "[4]; 310 K", "value": 20.4, "unit": "µM"}, {"measurement": "∆H", "setting": "[4]", "value": -8.549, "unit": "kcal/mol"}, {"measurement": "∆S", "setting": "[4]", "value": "−44.61", "unit": "J·mol^−1·K^−1"}, {"measurement": "Ki", "setting": "[5]", "value": 10.7, "unit": "µM"}, {"measurement": "inhibition type", "setting": "[5]", "value": "mixed inhibitor; also recorded: mixed-type inhibition"}, {"measurement": "α value (ratio of non-competitive to competitive inhibition constants)", "setting": "[5]; Lineweaver-Burk secondary plots", "value": 3.01}, {"measurement": "reversibility of inhibition", "setting": "[5]", "value": "reversibly inhibit BChE"}, {"measurement": "IC50", "setting": "[3]", "value": "15.3 ± 3.84", "unit": "µM"}]}
